According to the NIST ThermoML archive (doi:10.1016/j.jct.2015.06.017):

Settings: Liquid, Closed cell (Static) method

C=CC [propene]
Settings | vapor or sublimation pressure [kPa]
282.97 K | 769
287.57 K | 873
293.48 K | 1028
298.02 K | 1152
302.83 K | 1291
307.67 K | 1458
314.06 K | 1691
318.36 K | 1854
322.91 K | 2039
327.27 K | 2239
